Entries after “also recorded” stand apart in the source; their conditions may differ.
What was measured:
[1] = tested on: P10 ADP-ribosyl cyclase from Jurkat T lymphocytes; assay: Inhibition of P10 (heavy membrane) ADP-ribosyl cyclase, cyclase activity; assay type: biochemical, human; conditions: for Inhibition of intracellular membrane bound P10 ADP-ribosyl cyclase (in words): heavy (P10) membranes from Jurkat T cells, FIG. 3; for Enzyme Activity (% of control), Cyclase activity: P10 fraction, 100 μM 1,N6-etheno-NAD substrate
Description: (§1) Heavy membrane (P10 membranes) were prepared from Jurkat T cells (10^9 cells) as described (Guse et al., Nature 1999). P10-ADP-ribosyl cyclase was then incubated with 100 μM substrate (1,N^6-etheno-NAD) in the presence or absence of various concentrations of 8-Br-NHD. The formation of 1,N^6-etheno-cADPR and 1,N^6-etheno-ADPR was continuously monitored by fluorimetry (exc. 300 nm, em. 410 nm). Finally, the precise amount of products 1,N^6-etheno-cADPR and 1,N^6-etheno-ADPR was quantified by HPLC (da Silva et al., 1998a) using a fluorescence detector. Data are presented as mean±SD (n≧3).

[2] = tested on: NAD glycohydrolase activity of P10 membranes from Jurkat T lymphocytes; assay: Inhibition of NAD glycohydrolase (NADase) activity in the P10 fraction; assay type: biochemical, human; conditions: for Inhibition of NADase activity in the P10 fraction (in words): FIG. 3; for Enzyme Activity (% of control), NAD glycohydrolase activity: P10 fraction
Description: as §1

[3] = tested on: soluble ADP-ribosyl cyclase from Jurkat T lymphocytes; assay: Inhibition of partially purified soluble ADP-ribosyl cyclase, cyclase activity; assay type: biochemical, human; conditions: soluble fraction, 100 μM 1,N6-etheno-NAD substrate
Description: as §1, with “FIG. 1-a, b—Inhibition of intracellular, soluble ADP-ribosyl cyclase by 8-Br-NHD. Soluble protein (S100 protein) was” for “Heavy membrane (P10 membranes) were”, “1999) and soluble ADP-ribosyl cyclase was partially purified by hydroxyapatite chromatography. Partially purified ADP-ribosyl” for “1999). P10-ADP-ribosyl”, “mean ±SD” for “mean±SD”
(§2) Soluble protein (S100 protein) was prepared from Jurkat T cells (10^9 cells) as described (Guse et al., Nature 1999) and soluble ADP-ribosyl cyclase was partially purified by hydroxyapatite chromatography. […] The formation of 1,N^6-etheno-cADPR and 1,N^6-etheno-ADPR was continuously monitored by fluorimetry (exc. 300 nm, em. 410 nm). Finally, the precise amount of products 1,N^6-etheno-cADPR and 1,N^6-etheno-ADPR was quantified by HPLC (da Silva et al., 1998a) using a fluorescence detector. Data are presented as mean±SD (n≧3).

[4] = tested on: NAD glycohydrolase activity of soluble protein fraction from Jurkat T lymphocytes; assay: Inhibition of NAD glycohydrolase (NADase) activity in the soluble fraction; assay type: biochemical, human
Description: FIG. 1-a, b—Inhibition of intracellular, soluble ADP-ribosyl cyclase by 8-Br-NHD. Soluble protein (S100 protein) was prepared from Jurkat T cells (10^9 cells) as described (Guse et al., Nature 1999) and soluble ADP-ribosyl cyclase was partially purified by hydroxyapatite chromatography. Partially purified ADP-ribosyl cyclase was then incubated with 100 μM substrate (1,N^6-etheno-NAD) in the presence or absence of various concentrations of 8-Br-NHD. The formation of 1,N^6-etheno-cADPR and 1,N^6-etheno-ADPR was continuously monitored by fluorimetry (exc. 300 nm, em. 410 nm). Finally, the precise amount of products 1,N^6-etheno-cADPR and 1,N^6-etheno-ADPR was quantified by HPLC (da Silva et al., 1998a) using a fluorescence detector. Data are presented as mean ±SD (n≧3).
as §2

[5] = target: T1, ecto-ADP-ribosyl cyclase (CD38) (Homo sapiens, UniProt P28907); assay: Inhibition of cell surface ADP-ribosyl cyclase on intact Jurkat T cells; assay type: cell-based; conditions: FIG. 4
T1 construct: Intact Jurkat T cells expressing ecto-ADP-ribosyl cyclase; endogenous in cells; host or cells: intact Jurkat T cells
T1 sequence (P28907 1-300): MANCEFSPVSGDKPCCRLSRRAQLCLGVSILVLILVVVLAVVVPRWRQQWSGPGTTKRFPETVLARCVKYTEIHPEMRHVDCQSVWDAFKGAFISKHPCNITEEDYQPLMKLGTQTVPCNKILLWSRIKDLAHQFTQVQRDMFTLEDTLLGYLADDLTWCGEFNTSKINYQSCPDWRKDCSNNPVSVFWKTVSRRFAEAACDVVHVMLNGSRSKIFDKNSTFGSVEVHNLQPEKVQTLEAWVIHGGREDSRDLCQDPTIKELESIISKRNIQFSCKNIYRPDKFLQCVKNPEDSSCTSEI
Description: as §1, with “Intact” for “Heavy membrane (P10 membranes) were prepared from”, “expressing ecto-ADP-ribosyl cyclase (da Silva” for “(10^9 cells) as described (Guse”, “1998b) were” for “Nature 1999). P10-ADP-ribosyl cyclase was then”, “8-Br-NHD. It is likely that this enzyme is CD38.” for “8-Br-NHD.”

[6] = target: T2, NADase activity of intact Jurkat T cells expressing ecto-ADP-ribosyl cyclase (Homo sapiens, UniProt P28907); assay: Inhibition of NADase activity on intact Jurkat T cells; assay type: cell-based; conditions: FIG. 4
T2 construct: Intact Jurkat T cells expressing ecto-ADP-ribosyl cyclase; endogenous in cells; host or cells: intact Jurkat T cells
T2 sequence (P28907 1-300): T1 sequence (P28907 1-300)
Description: as §1, with “Intact” for “Heavy membrane (P10 membranes) were prepared from”, “expressing ecto-ADP-ribosyl cyclase (da Silva” for “(10^9 cells) as described (Guse”, “1998b) were” for “Nature 1999). P10-ADP-ribosyl cyclase was then”, “8-Br-NHD. It is likely that this enzyme is CD38.” for “8-Br-NHD.”

[7] = tested on: TCR/CD3-mediated Ca2+-signalling of the human Jurkat T cell line; assay: TCR/CD3-mediated Ca2+ signalling, Fura2 ratiometric imaging; assay type: cell-based; conditions: preincubation 250 or 500 μM for 30 min, anti-CD3 OKT3 stimulation, 25 min after stimulation; FIG. 5
Description: Intact Jurkat T cells were loaded with Fura2-AM, and Ca^2+ signalling was measured by digital ratiometric Ca^2+ imaging (Guse et al., Nature 1999). For technical reasons the excitation wavelengths were set to 340 and 365 nm, whereas emission was filtered at 520 nm. The cells were preincubated with 250 or 500 μM 8-Br-NHD for 30 min. Then the cells were stimulated by anti-CD3 antibody OKT3 ([…]) in solution, and the cells were transferred to the examination chamber on the digital imaging station. The intracellular Ca^+ concentration was then monitored for about 25 min with a sampling rate of 3 or 6/min. Data are presented as mean intracellular Ca^2+ concentration ±SEM 25 min after stimulation. Numbers in brackets indicate the number of cells investigated in 3 independent experiments.

[8] = tested on: human Jurkat T cells; assay: Proliferation of Jurkat T cells, trypan blue cell counting; assay type: cell-based; conditions: present for 4 or 5 days; FIG. 6
Description: FIG. 6—Inhibition of proliferation of the human Jurkat T cell line by 8-Br-NHD. Proliferation of intact Jurkat T cells was measured as described earlier (Guse et al., Cell Calcium 1997). Various concentrations of 8-Br-NHD were added to the cultures in 96 well plates, and were present for 4 or 5 days. The number of living cells was determined every day by cell counting of trypan blue stained cells. Data are mean±SD from 2 independent experiments.

[9] = tested on: NADase; conditions: positive controls; cited from earlier work

| SMILES | Inhibition of intracellular membrane bound P10 ADP-ribosyl cyclase (in words) [1] | Enzyme Activity (% of control), Cyclase activity ([1]; inhibitor 10 μM) | Enzyme Activity (% of control), Cyclase activity ([1]; inhibitor 100 μM) | Inhibition of NADase activity in the P10 fraction (in words) [2] | Enzyme Activity (% of control), NAD glycohydrolase activity ([2]; inhibitor 10 μM) | Enzyme Activity (% of control), NAD glycohydrolase activity ([2]; inhibitor 100 μM) | Enzyme Activity (% of control), Cyclase activity ([3]; inhibitor 10 μM) | Enzyme Activity (% of control), Cyclase activity ([3]; inhibitor 100 μM) | Enzyme Activity (% of control), NAD glycohydrolase activity ([4]; inhibitor 10 μM) | Enzyme Activity (% of control), NAD glycohydrolase activity ([4]; inhibitor 100 μM) | Enzyme Activity (% of control), Cyclase activity ([1]; inhibitor 1000 μM) | Enzyme Activity (% of control), NAD glycohydrolase activity ([2]; inhibitor 1000 μM) | Enzyme Activity (% of control), Cyclase activity ([3]; inhibitor 1000 μM) | Enzyme Activity (% of control), NAD glycohydrolase activity ([4]; inhibitor 1000 μM) | Inhibition of ecto-ADP-ribosyl cyclase (in words) [5] | Inhibition of NADase activity, cell surface (in words) [6] | Second, sustained phase of Ca2+ signaling (in words) [7] | Proliferation of Jurkat T cells (in words) [8] | Published as inhibitor of NADase [9] |
| --- | --- | --- | --- | --- | --- | --- | --- | --- | --- | --- | --- | --- | --- | --- | --- | --- | --- | --- | --- |
| NC(=O)c1ccc[n+](C2OC(COP(=O)([O-])OP(=O)(O)OCC3OC(n4c(Br)nc5c(=O)[nH]cnc54)C(O)C3O)C(O)C2O)c1 (stereo not drawn) [8-Br-NHD, nicotinamide 8-bromohypoxanthine dinucleotide] | dose-dependently inhibited; also recorded: inhibit | 59.2 % of control | 14.3 % of control | inhibited with a similar pharmacology; also recorded: inhibit | 60.8 % of control | 15.6 % of control | 57.7 % of control | 13.0 % of control | 55.5 % of control | 3.3 % of control | – | – | – | – | dose-dependent inhibition | inhibited with a similar pharmacology | significantly reduced | dose-dependently inhibits | – |
| NC(=O)c1cccnc1 [Nicotinamide, nicotinamide, reference compound] | – | 94.0 % of control | 43.3 % of control | – | 94.2 % of control | 42.6 % of control | 99.2 % of control | 38.2 % of control | 95.2 % of control | 29.6 % of control | 14.9 % of control | 12.4 % of control | 10.6 % of control | 8.2 % of control | – | – | – | – | published as inhibitors of NADase |

The next lines start with results.

| Inhibition of intracellular membrane bound P10 ADP-ribosyl cyclase (in words) [1] | Enzyme Activity (% of control), Cyclase activity ([1]; inhibitor 10 μM) | Enzyme Activity (% of control), Cyclase activity ([1]; inhibitor 100 μM) | Inhibition of NADase activity in the P10 fraction (in words) [2] | Enzyme Activity (% of control), NAD glycohydrolase activity ([2]; inhibitor 10 μM) | Enzyme Activity (% of control), NAD glycohydrolase activity ([2]; inhibitor 100 μM) | Enzyme Activity (% of control), Cyclase activity ([3]; inhibitor 10 μM) | Enzyme Activity (% of control), Cyclase activity ([3]; inhibitor 100 μM) | Enzyme Activity (% of control), NAD glycohydrolase activity ([4]; inhibitor 10 μM) | Enzyme Activity (% of control), NAD glycohydrolase activity ([4]; inhibitor 100 μM) | Enzyme Activity (% of control), Cyclase activity ([1]; inhibitor 1000 μM) | Enzyme Activity (% of control), NAD glycohydrolase activity ([2]; inhibitor 1000 μM) | Enzyme Activity (% of control), Cyclase activity ([3]; inhibitor 1000 μM) | Enzyme Activity (% of control), NAD glycohydrolase activity ([4]; inhibitor 1000 μM) | SMILES | Inhibition of ecto-ADP-ribosyl cyclase (in words) [5] | Inhibition of NADase activity, cell surface (in words) [6] | Second, sustained phase of Ca2+ signaling (in words) [7] | Proliferation of Jurkat T cells (in words) [8] | Published as inhibitor of NADase [9] |
| --- | --- | --- | --- | --- | --- | --- | --- | --- | --- | --- | --- | --- | --- | --- | --- | --- | --- | --- | --- |
| inhibit | 97.9 % of control | 82.1 % of control | inhibit | 97.5 % of control | 83.3 % of control | 94.0 % of control | 69.3 % of control | 94 % of control | 80.5 % of control | – | – | – | – | NC(=O)c1ccc[n+]([C@@H]2O[C@H](COP(=O)([O-])OP(=O)(O)OC[C@H]3O[C@@H](n4ccc5c(=O)[nH]cnc54)[C@H](O)[C@@H]3O)[C@@H](O)[C@H]2O)c1 [7-deaza-NHD, 7-deaza-nicotinamide hypoxanthine dinucleotide] | – | – | – | – | – |
| inhibit | 63.6 % of control | 11.26 % of control | inhibit | 59.0 % of control | 0 % of control | 46.0 % of control | 10.6 % of control | 37.3 % of control | 13.5 % of control | – | – | – | – | NC(=O)c1ccc[n+](C2OC(COP(=O)(O)OP(=O)(O)OCC3OC(n4cnc5c(=O)[nH]cnc54)C(O)C3O)C(O)C2O)c1 (stereo not drawn) [NHD, nicotinamide hypoxanthine dinucleotide] | – | – | – | – | – |
| – | 112.3 % of control | 93.4 % of control | – | 115.0 % of control | 91.9 % of control | 80.5 % of control | 65.4 % of control | 81.3 % of control | 59.4 % of control | 56.9 % of control | 48.8 % of control | 36.5 % of control | 26.9 % of control | NC(=O)c1ccc[n+]([C@@H]2O[C@H](COP(=O)([O-])O)[C@@H](O)[C@H]2O)c1 [β-NMN, β-nicotinamide mononucleotide, reference compound] | – | – | – | – | published as inhibitors of NADase |

From patent US20040214789A1, “Therapeutics” (priority 2001, published 2004)
